Calls of active or inactive are those of the source. No cut-off for these calls is given here.
Key:
Syrian golden hamster [1] = test: Anti-obesity activity in high-fat diet induced Syrian golden hamster model assessed as reduction in lipid accumulation in liver cells at 50 mg/kg, po administered for 7 days by H and E staining based inverted microscopic analysis; type: functional, organism-based; settings: Mesocricetus auratus, time 7.0 day
3T3-L1 [2] = test: Anti-adipogenic activity in MDI-cocktail differentiated mouse 3T3-L1 pre-adipocyte cells assessed as reduction in adipogenic differentiation at 5 uM measured after 0 to 5 days by Oil Red O staining based microscopic analysis; type: functional, cell-based; settings: time 0-5 day
3T3-L1 [3] = test: Cytotoxicity against mouse 3T3-L1 pre-adipocyte cells assessed as reduction in cell viability 100 uM incubated for 48 hrs by MTT assay; type: toxicity, cell-based; settings: 3t3-l1, 48 h
3T3-L1 [4] = test: Anti-adipogenic activity in MDI-cocktail differentiated mouse 3T3-L1 pre-adipocyte cells assessed as reduction in adipogenic differentiation at 5 uM measured after 3 to 5 days by Oil Red O staining based microscopic analysis; type: functional, cell-based; settings: time 3-5 day
3T3-L1 [5] = test: Inhibition of MDI-cocktail induced adipogenic differentiation in mouse 3T3-L1 pre-adipocyte cells assessed as inhibition of lipid accumulation by Oil Red O staining based microscopic analysis; type: functional, cell-based; settings: dose 0.5-20 µM
Syrian golden hamster [6] = test: Hepatoprotective activity in high-fat diet induced Syrian golden hamster model assessed as reduction in serum AST level at 25 to 50 mg/kg, po administered for 7 days; type: functional, organism-based; settings: Mesocricetus auratus, dose 25-50 mg/kg, time 7.0 day
3T3-L1 [7] = test: Inhibition of MDI-cocktail induced AKT phosphorylation at Ser473 residue in mouse 3T3-L1 pre-adipocyte cells at 5 uM by immunoblotting analysis; type: cell-based
C3H 10T1/2 = test: Anti-adipogenic activity in MDI-cocktail differentiated mouse C3H 10T1/2 cells assessed as reduction in adipogenic differentiation at 5 uM measured after 0 to 5 days by Oil Red O staining based microscopic analysis; type: functional, cell-based; settings: time 0-5 day
3T3-L1 [8] = test: Induction of basal respiration during early phase in MDI-cocktail differentiated mouse 3T3-L1 pre-adipocyte cells 5 uM incubated for 72 hrs by Seahorse XFp flux analyzer; type: functional, cell-based
3T3-L1 [9] = test: Anti-adipogenic activity in MDI-cocktail differentiated mouse 3T3-L1 pre-adipocyte cells assessed as reduction in PPARgamma protein expression at 5 uM measured for 3 to 7 days by immunoblotting analysis; type: functional, cell-based; settings: time 3-7 day
3T3-L1 [10] = test: Inhibition of MDI-cocktail induced mTOR phosphorylation at Ser2448 residue in mouse 3T3-L1 pre-adipocyte cells at 5 uM by immunoblotting analysis; type: cell-based
3T3-L1 [11] = test: Upregulation of CI-NDUFB8 protein expression in mouse 3T3-L1 mature adipocytes at 1 to 5 uM incubated for 24 hrs by Western blot analysis; type: functional, cell-based; settings: dose 1-5 µM
3T3-L1 [12] = test: Inhibition of MDI-cocktail induced adipogenic differentiation in mouse 3T3-L1 pre-adipocyte cells assessed as reduction in lipid bound stain absorbance at 0.5 to 25 uM by Oil Red O staining based microscopic analysis; type: functional, cell-based; settings: dose 0.5-25 µM
3T3-L1 [13] = test: Cytotoxicity against mouse 3T3-L1 pre-adipocyte cells assessed as reduction in cell viability upto 50 uM incubated for 48 hrs by MTT assay; type: toxicity, cell-based; settings: 3t3-l1, 48 h

Q: How did the Activity (Syrian golden hamster [1]) turn out when `Cc1ccc(-c2cnc(-c3ccc[n+](Cc4cccc(C)c4)c3)o2)cc1.[Br-]` was run?
A: The Activity was “Active”.

Q: What about the Activity (3T3-L1 [2]) of the same compound?
A: The Activity was “Active”.

Q: And the Activity (3T3-L1 [3])?
A: The Activity was “Toxic”.

Q: What about the Activity (3T3-L1 [4]) of the same compound?
A: The Activity was “Active”.

Q: What about the inhibition (3T3-L1 [5]) of the same compound?
A: The inhibition was “Active”.

Q: What about the Activity (Syrian golden hamster [6]) of the same compound?
A: The Activity was “Active”.

Q: And the inhibition (3T3-L1 [7])?
A: Its inhibition is “Active”.

Q: What about the Activity (C3H 10T1/2) of the same compound?
A: Its Activity is “Active”.

Q: And the Activity (3T3-L1 [8])?
A: The Activity was “Active”.

Q: And the Activity (3T3-L1 [9])?
A: Its Activity is “Active”.

Q: And the inhibition (3T3-L1 [10])?
A: Its inhibition is “Active”.

Q: What about the Activity (3T3-L1 [11]) of the same compound?
A: The Activity was “Active”.

Q: And the inhibition (3T3-L1 [12])?
A: Its inhibition is “Active”.

Q: What about the Activity (3T3-L1 [13]) of the same compound?
A: The Activity was “Non-Toxic”.

From ChEMBL document CHEMBL5634151, “Anti-adipogenic action of a novel oxazole derivative through activation of AMPK pathway” (Eur J Med Chem, 2023)
